Experimental data reported in patent publication US20250265710A1, “NON-INVASIVE LASER SPECKLE IMAGING OF EXTRA-EMBRYONIC BLOOD VESSELS” (California Institute of Technology, priority 2024, published 2025).
Where two headings read alike, the source gives them in different places.

Tested on: chick embryonic heart
Experimental: These drugs were injected through the shell ventral to chick embryos at a developmental HH stage between HH16-19. The needle was guided to the embryos by the LLSCI system in live view mode.
In one example, before imaging, the eggs are injected with a drug by implementing a live view mode to ascertain the position of the embryo's heart and inserted a needle into the eggshell and the drug was injected into the area ventral to the embryo in a volume of 25-150 μL. This may result in a hole in the eggshell having a diameter between 0.6 and 0.8 mm. The hole can be covered by transparent tape to ensure the continued development of the embryo. After injection, the egg may be placed in an incubator (e.g., incubator 440 in FIG. 4) and imaged at regular intervals using a GUI (e.g., GUI 487 in FIG. 4). FIG. 22 is a schematic representation of a procedure for using LSCI imaging to determine the location of avian embryos for injection, according to an embodiment.
FIG. 23A depicts images of extraembryonic blood vessels of the control egg generated by the LSCI system 400 in FIG. 4 and images (frames) of a movie showing the dynamics of the blood vessels at time=3 minutes, time=34 minutes, time=73 minutes, time=129 minutes, time=250 minutes, and time=270 minutes. FIG. 23A also includes a time trace of BFI at these times. The time trace of the BFI is indicative of heart rate.
To quantify and characterize the effects of injecting a drug solution onto the CAM, an LSCI system was used to extract four features from the blood vessels images and blood flow graphs. FIG. 24 depicts examples of extraembryonic blood vessel images 2410, 2420 before and after feature extraction, and a heartbeat signal, according to embodiments. Blood vessel skeleton, branches, and the size of the CAM visualized. […] The LSCI system implemented the LSCI process 1400 shown in FIG. 14 to extract the features.
In various examples, the length of the blood vessels may be calculated as the total length of the vessel skeleton in the blood vessel image. In various examples, the number of branches may be determined by counting the branch points connecting the blood vessels and isolated vessel segments in the blood vessel images. In various examples, the vessel area may be obtained by calculating the area of the CAM in the blood vessel image. In various examples, the heart rate may be measured from the Fourier transform of the blood flow signal.
Tests were also performed on five eggs for each of the two Amlodipine concentrations. […] FIG. 25B includes a plot of heart rate 2530, a plot of length of blood vessels 2532, a plot of the number of branches 2540, and a plot of the size of the area vaculosa (AV) 2542 for test eggs injected with two different Amlodipine concentrations, according to embodiments.

| SMILES | time after injection without begin of return of heart rate to normal levels (higher doses above 5 nmol) | time to heart rate nadir (higher doses above 5 nmol) | period over which heart rate dropped (low doses around 3 nmol) | heart rate an hour after injection (one egg, 50 μL solution with 3 nmole) | heart rate after injection (one egg, 50 μL solution with 3 nmole, dropped from 132 bpm pre-injection) | embryo viability (higher doses >60 nmol) | time to heart rate nadir (higher doses >60 nmol) | embryo development when incubated 7 days after the experiment (lowest dose tested (<50 nmol)) |
| --- | --- | --- | --- | --- | --- | --- | --- | --- |
| COC(=O)C1=C(C)NC(C)=C(C(=O)OC)C1c1ccccc1[N+](=O)[O-] [Nifedipine] | > 100 min | 20 min | 40 min | 100 bpm | 94 bpm |  |  |  |
| CCOC(=O)C1=C(COCCN)NC(C)=C(C(=O)OC)C1c1ccccc1Cl (centres unmarked) [Amlodipine] |  |  |  |  |  | embryo died at the time of injection, or its later development was heavily compromised | 20 min | developed normally |
